Measured values: EP2758401B1 (Bayer Intellectual Property GmbH, priority 2011, dated 2013)
Structures can show the parent of a compound that is named as a salt.

Legend:
MKNK1 [1] = biological target: T1, MKNK1 (Homo sapiens, UniProt Q9BUB5, T385D); assay: MKNK1 kinase assay (TR-FRET); type: biochemical; settings: ATP final conc. 10 µM; 15 min pre-incubation; reaction time 45 min at 22°C
T1 construct: GST (N); purchased Carna Biosciences 02-145; host or cells: insect cells (baculovirus expression system)
Experimental: MKNK1-inhibitory activity of compounds of the present invention was quantified employing the MKNK1 TR-FRET assay as described in the following paragraphs.
As substrate for the kinase reaction the biotinylated peptide biotin-Ahx-[…] (C-terminus in amide form) was used which can be purchased e.g. form the company Biosyntan (Berlin-Buch, Germany).
For the assay 50 nL of a 100fold concentrated solution of the test compound in DMSO was pipetted into a black low volume 384well microtiter plate (Greiner Bio-One, Frickenhausen, Germany), 2 µL of a solution of MKNK1 in aqueous assay buffer [50 mM HEPES pH 7.5, 5 mM magnesium chloride, 1.0 mM dithiothreitol, 0.005% (v/v) Nonidet-P40 (Sigma)] was added and the mixture was incubated for 15 min at 22°C to allow pre-binding of the test compounds to the enzyme before the start of the kinase reaction. Then the kinase reaction was started by the addition of 3 µL of a solution of adenosine-tri-phosphate (ATP, 16.7 µM => final conc. in the 5 µL assay volume is 10 µM) and substrate (0.1 µM => final conc. in the 5 µL assay volume is 0.06 µM) in assay buffer and the resulting mixture was incubated for a reaction time of 45 min at 22°C.
The resulting mixture was incubated for 1 h at 22°C to allow the formation of complex between the phosphorylated biotinylated peptide and the detection reagents. Subsequently the amount of phosphorylated substrate was evaluated by measurement of the resonance energy transfer from the Eu-chelate to the streptavidine-XL. Therefore, the fluorescence emissions at 620 nm and 665 nm after excitation at 350 nm were measured in a TR-FRET reader, e.g. a Rubystar (BMG Labtechnologies, Offenburg, Germany) or a Viewlux (Perkin-Elmer). The ratio of the emissions at 665 nm and at […] was taken as the measure for the amount of phosphorylated substrate. The data were normalised (enzyme reaction without inhibitor = 0 % inhibition, all other assay components but no enzyme = 100 % inhibition). […] Table 1: MKNK1 IC50s

MKNK1 [2] = biological target: T1, MKNK1; assay: MKNK1 kinase high ATP assay (TR-FRET); type: biochemical; settings: ATP final conc. 2 mM; 15 min pre-incubation; reaction time 30 min at 22°C
Experimental: MKNK1-inhibitory activity at high ATP of compounds of the present invention after their preincubation with MKNK1 was quantified employing the TR-FRET-based MKNK1 high ATP assay as described in the following paragraphs.
As substrate for the kinase reaction the biotinylated peptide biotin-Ahx-[…] (C-terminus in amide form) was used, which can be purchased e.g. from the company Biosyntan (Berlin-Buch, Germany).
For the assay 50 nL of a 100fold concentrated solution of the test compound in DMSO was pipetted into a black low volume 384well microtiter plate (Greiner Bio-One, Frickenhausen, Germany), 2 µL of a solution of MKNK1 in aqueous assay buffer [50 mM HEPES pH 7.5, 5 mM magnesium chloride, 1.0 mM dithiothreitol, 0.005% (v/v) Nonidet-P40 (Sigma)] was added and the mixture was incubated for 15 min at 22°C to allow pre-binding of the test compounds to the enzyme before the start of the kinase reaction. Then the kinase reaction was started by the addition of 3 µL of a solution of adenosine-tri-phosphate (ATP, 3.3 mM => final conc. in the 5 µL assay volume is 2 mM) and substrate (0.1 µM => final conc. in the 5 µL assay volume is 0.06 µM) in assay buffer and the resulting mixture was incubated for a reaction time of 30 min at 22°C. The concentration of MKNK1 was adjusted depending of the activity of the enzyme lot and was chosen appropriate to have the assay in the linear range, typical concentrations were in the range of 0.003 µg/mL. The reaction was stopped by the addition of 5 µL of a solution of TR-FRET detection reagents (5 nM streptavidine-XL665 [Cisbio Bioassays, Codolet, France] and 1 nM anti-ribosomal protein S6 (pSer236)-antibody from Invitrogen [# 44921G] and 1 nM LANCE EU-W1024 labeled ProteinG [Perkin-Elmer, product no. AD0071]) in an aqueous EDTA-solution (100 mM EDTA, 0.1 % (w/v) bovine serum albumin in 50 mM HEPES pH 7.5).
The resulting mixture was incubated for 1 h at 22°C to allow the formation of complex between the phosphorylated biotinylated peptide and the detection reagents. Subsequently the amount of phosphorylated substrate was evaluated by measurement of the resonance energy transfer from the Eu-chelate to the streptavidine-XL. Therefore, the fluorescence emissions at 620 nm and 665 nm after excitation at 350 nm were measured in a TR-FRET reader, e.g. a Rubystar (BMG Labtechnologies, Offenburg, Germany) or a Viewlux (Perkin-Elmer). The ratio of the emissions at 665 nm and at […] was taken as the measure for the amount of phosphorylated substrate. The data were normalised (enzyme reaction without inhibitor = 0 % inhibition, all other assay components but no enzyme = 100 % inhibition).

T1 sequence (Q9BUB5 1-424 isoform Q9BUB5-2 T344D): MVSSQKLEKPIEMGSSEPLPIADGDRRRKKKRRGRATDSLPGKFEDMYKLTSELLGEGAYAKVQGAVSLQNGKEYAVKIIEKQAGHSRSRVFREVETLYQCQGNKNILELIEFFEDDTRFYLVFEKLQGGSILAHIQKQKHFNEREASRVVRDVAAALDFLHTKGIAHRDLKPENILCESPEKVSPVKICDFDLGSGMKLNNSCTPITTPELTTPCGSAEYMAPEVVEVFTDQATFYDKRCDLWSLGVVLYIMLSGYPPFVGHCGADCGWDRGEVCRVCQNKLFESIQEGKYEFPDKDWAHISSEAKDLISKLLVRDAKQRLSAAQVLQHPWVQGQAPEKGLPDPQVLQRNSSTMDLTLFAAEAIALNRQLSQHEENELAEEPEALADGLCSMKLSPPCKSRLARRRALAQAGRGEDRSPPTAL

## NCCCOc1ccc2ncc(-c3cc4ccccc4o3)n2n1 [Example 11, 3-{[3-(1-Benzofuran-2-yl)imidazo[1,2-b]pyridazin-6-yl]oxy}propan-1-amine]
MKNK1 [1]
  IC50: 8 nM
MKNK1 [2]
  IC50: 24 nM

## NCCOc1ccc2ncc(-c3cc4ccccc4o3)n2n1 [Example 12, 2-{[3-(1-Benzofuran-2-yl)imidazo[1,2-b]pyridazin-6-yl]oxy}ethanamine]
MKNK1 [1]
  IC50: 10 nM
MKNK1 [2]
  IC50: 27 nM

## CC(C)(N)CCOc1ccc2ncc(-c3cc4ccccc4o3)n2n1 [Example 14, 4-{[3-(1-Benzofuran-2-yl)imidazo[1,2-b]pyridazin-6-yl]oxy}-2-methylbutan-2-amine]
MKNK1 [1]
  IC50: 20 nM
MKNK1 [2]
  IC50: 39 nM

## C[C@H](CN)Oc1ccc2ncc(-c3cc4cc(Cl)ccc4o3)n2n1 [Example 15, (2R)-2-{[3-(5-Chloro-1-benzofuran-2-yl)imidazo[1,2-b]pyridazin-6-yl]oxy}-propan-1-amine]
MKNK1 [1]
  IC50: 36 nM
MKNK1 [2]
  IC50: 197 nM

## NC[C@H](Oc1ccc2ncc(-c3cc4ccccc4o3)n2n1)c1ccccc1 [Example 16, (2R)-2-{[3-(1-Benzofuran-2-yl)imidazo[1,2-b]pyridazin-6-yl]oxy}-2-phenylethan-amine]
MKNK1 [1]
  IC50: 26 nM
MKNK1 [2]
  IC50: 49 nM

## N[C@H](COc1ccc2ncc(-c3cc4ccccc4o3)n2n1)c1ccccc1 [Example 17, (1S)-2-{[3-(1-Benzofuran-2-yl)imidazo[1,2-b]pyridazin-6-yl]oxy}-1-phenylethan-amine]
MKNK1 [1]
  IC50: 6 nM
MKNK1 [2]
  IC50: 10 nM

## N[C@@H](COc1ccc2ncc(-c3cc4ccccc4o3)n2n1)c1ccccc1 [Example 18, (1R)-2-{[3-(1-Benzofuran-2-yl)imidazo[1,2-b]pyridazin-6-yl]oxy}-1-phenyl-ethanamine]
MKNK1 [1]
  IC50: 22 nM
MKNK1 [2]
  IC50: 33 nM

## N[C@H](COc1ccc2ncc(-c3cc4cc(Cl)ccc4o3)n2n1)c1ccccc1 [Example 19, (1S)-2-{[3-(5-Chloro-1-benzofuran-2-yl)imidazo[1,2-b]pyridazin-6-yl]oxy}-1-phenylethanamine]
MKNK1 [1]
  IC50: 25 nM
MKNK1 [2]
  IC50: 111 nM

## NC[C@H]1C[C@H](Oc2ccc3ncc(-c4cc5ccccc5o4)n3n2)C1 [Example 20, 1-(trans-3-{[3-(1-Benzofuran-2-yl)imidazo[1,2-b]pyridazin-6-yl]oxy}cyclobutyl)-methanamine]
MKNK1 [1]
  IC50: 4 nM
MKNK1 [2]
  IC50: 6 nM

## N[C@H]1C[C@H](COc2ccc3ncc(-c4cc5ccccc5o4)n3n2)C1 [Example 22, trans-3-({[3-(1-Benzofuran-2-yl)imidazo[1,2-b]pyridazin-6-yl]oxy}methyl)cyclobutanamine]
MKNK1 [1]
  IC50: 6 nM
MKNK1 [2]
  IC50: 17 nM

## N[C@H]1CCC[C@@H]1Oc1ccc2ncc(-c3cc4ccccc4o3)n2n1 [Example 24, (1S,2S)-2-{[3-(1-Benzofuran-2-yl)imidazo[1,2-b]pyridazin-6-yl]oxy}cyclopentan-amine]
MKNK1 [1]
  IC50: 10 nM
MKNK1 [2]
  IC50: 19 nM

## N[C@H]1CCC[C@H]1Oc1ccc2ncc(-c3cc4ccccc4o3)n2n1 [Example 25, (1S,2R)-2-{[3-(1-Benzofuran-2-yl)imidazo[1,2-b]pyridazin-6-yl]oxy}cyclopentan-amine salt with formic acid]
MKNK1 [1]
  IC50: 7 nM
MKNK1 [2]
  IC50: 22 nM

## NCC(Cc1ccccc1)Oc1ccc2ncc(-c3cc4ccccc4o3)n2n1 (centres unmarked) [Example 26, 2-{[3-(1-Benzofuran-2-yl)imidazo[1,2-b]pyridazin-6-yl]oxy}-3-phenylpropan-1-amine salt with formic acid]
MKNK1 [1]
  IC50: 15 nM
MKNK1 [2]
  IC50: 25 nM

## NCC(Oc1ccc2ncc(-c3cc4ccccc4o3)n2n1)C1CC1 (centres unmarked) [Example 30, 2-{[3-(1-Benzofuran-2-yl)imidazo[1,2-b]pyridazin-6-yl]oxy}-2-cyclopropylethan-amine]
MKNK1 [1]
  IC50: 41 nM
MKNK1 [2]
  IC50: 75 nM

## NCC(CN)Oc1ccc2ncc(-c3cc4ccccc4o3)n2n1 [Example 34, 2-{[3-(1-Benzofuran-2-yl)imidazo[1,2-b]pyridazin-6-yl]oxy}propane-1,3-diamine]
MKNK1 [1]
  IC50: 39 nM
MKNK1 [2]
  IC50: 92 nM

## NCC(Oc1ccc2ncc(-c3cc4ccccc4o3)n2n1)C1CCOC1 (centres unmarked) [Example 35, 2-{[3-(1-Benzofuran-2-yl)imidazo[1,2-b]pyridazin-6-yl]oxy}-2-(tetrahydrofuran-3-yl)ethanamine]
MKNK1 [1]
  IC50: 32 nM
MKNK1 [2]
  IC50: 52 nM

## N[C@H]1C[C@H](Oc2ccc3ncc(-c4cc5c(F)cccc5o4)n3n2)C1 [Example 36, trans-3-{[3-(4-Fluoro-1-benzofuran-2-yl)imidazo[1,2-b]pyridazin-6-yl]oxy}-cyclobutanamine]
MKNK1 [1]
  IC50: 1 nM
MKNK1 [2]
  IC50: 2 nM

## N[C@H]1C[C@H](Oc2ccc3ncc(-c4cc5cc(Cl)ccc5o4)n3n2)C1 [Example 37, trans-3-{[3-(5-Chloro-1-benzofuran-2-yl)imidazo[1,2-b]pyridazin-6-yl]oxy}-cyclobutanamine]
MKNK1 [1]
  IC50: 4 nM
MKNK1 [2]
  IC50: 5 nM

## COc1ccc2oc(-c3cnc4ccc(O[C@H]5C[C@H](N)C5)nn34)cc2c1 [Example 38, trans-3-{[3-(5-Methoxy-1-benzofuran-2-yl)imidazo[1,2-b]pyridazin-6-yl]oxy}-cyclobutanamine]
MKNK1 [1]
  IC50: 3 nM
MKNK1 [2]
  IC50: 6 nM

## N[C@H]1C[C@H](Oc2ccc3ncc(-c4cc5cc(F)ccc5o4)n3n2)C1 [Example 39, trans-3-{[3-(5-Fluoro-1-benzofuran-2-yl)imidazo[1,2-b]pyridazin-6-yl]oxy}-cyclobutanamine]
MKNK1 [1]
  IC50: 3 nM
MKNK1 [2]
  IC50: 6 nM

## CC(CN)COc1ccc2ncc(-c3cc4ccccc4o3)n2n1 (centres unmarked) [Example 40, 3-{[3-(1-Benzofuran-2-yl)imidazo[1,2-b]pyridazin-6-yl]oxy}-2-methylpropan-1-amine]
MKNK1 [1]
  IC50: 9 nM
MKNK1 [2]
  IC50: 18 nM

## COc1cccc2oc(-c3cnc4ccc(OCC(N)C5CC5)nn34)cc12 (centres unmarked) [Example 41, 1-Cyclopropyl-2-{[3-(4-methoxy-1-benzofuran-2-yl)imidazo[1,2-b]pyridazin-6-yl]oxy}ethanamine]
MKNK1 [1]
  IC50: 12 nM
MKNK1 [2]
  IC50: 27 nM

## C[C@@H](N)COc1ccc2ncc(-c3cc4ccccc4o3)n2n1 [Example 42, (2R)-1-{[3-(1-Benzofuran-2-yl)imidazo[1,2-b]pyridazin-6-yl]oxy}propan-2-amine]
MKNK1 [1]
  IC50: 15 nM
MKNK1 [2]
  IC50: 43 nM

## C[C@@H](N)COc1ccc2ncc(-c3cc4cc(Cl)ccc4o3)n2n1 [Example 43, (2R)-1-{[3-(5-Chloro-1-benzofuran-2-yl)imidazo[1,2-b]pyridazin-6-yl]oxy}-propan-2-amine]
MKNK1 [1]
  IC50: 33 nM
MKNK1 [2]
  IC50: 62 nM

## NCC1(COc2ccc3ncc(-c4cc5ccccc5o4)n3n2)COC1 [Example 44, 1-[3-({[3-(1-Benzofuran-2-yl)imidazo[1,2-b]pyridazin-6-yl]oxy}methyl)oxetan-3-yl]methanamine]
MKNK1 [1]
  IC50: 52 nM
MKNK1 [2]
  IC50: 63 nM
